Measurements taken from patent US20230382944A1, “NOVEL COCRYSTALS OF DEXAMETHASONE” (Versitech Limited, priority 2022, published 2023).

Experiments:
Assay type in all cases: physicochemical
[1] = Particle size distribution measurement by laser diffraction; details: sieved below 63 μm, n = 3; for Span: (D90-D10)/D50
Description: The particle size and size distribution of the powders was determined using laser diffraction equipment, Mastersizer 3000 (Malvern Instruments Ltd, Worcestershire, UK) with Aero S dry powder disperser. […] The particle size distribution was calculated from the light scattering pattern using Mie theory. Particle size at 10% (D10), 50% (D50), 90% (D90) of the volume distribution were calculated automatically using the Mastersizer 3000 software […]. Span was calculated as (D90-D10)/D50. All the samples were measured in triplicate.

[2] = Stability study: drug assay by HPLC and PXRD before and after storage at 25° C./75% RH; details: storage 25° C./75% RH; for % Difference (Day 0-Day 30): Day 0 vs Day 30
Description: (§1) The mobile phase consisted of a mixture of methanol and water (65:35, v/v). A 30 μL aliquot of each sample solution was injected onto the column with a flow rate of 1 mL/min.
The samples before and after the storage were collected for PXRD analysis.

[3] = In-vitro drug release study for nasal delivery in pH 5.5 simulated nasal fluid; details: for IDR ratio of DEX cocrystals to DEX: pH 5.5 SNF, estimated by ratio of the slope with sphere assumption; for release in SNF relative to raw DEX (fold faster) / dissolution relative to raw DEX (fold faster): pH 5.5 simulated nasal fluid; for release in SNF relative to raw DEX (fold faster): at 120 min, particle size below 63 μm; for dissolution relative to raw DEX (fold faster): time point not stated
Description: as §1
The solution was stirred at 50 rpm on a magnetic stirrer. The dissolution medium and temperature were selected to mimic the physiological condition in the nasal cavity^35, 36. At designated times of 5, 10, 15, 20, 30, 45, 60, 90, and 120 min, 1 mL of the dissolution medium was withdrawn and replaced with an equal volume of fresh medium. The sample solution was filtered through 0.45 μm nylon syringe filters and assayed for drug content by HPLC. The intrinsic dissolution rate (IDR) is determined by the following equation: IDR=(dm/dt)max/A, where (dm/dt)max is the slope of the initial linear region of the cumulative dissolution curve until 10% of drug is dissolved, and A is the specific surface area of the dissolution sample. The following assumptions were made: (i) spherical particles, (ii) constant particle size, and (iii) constant number of particles during the initial phase of the dissolution experiment under sink condition. With the assumptions, the particle size distribution data collected by laser diffractometry is used for the particle surface area (SAparticle) calculation. The total number of particles (n) subject to dissolution is calculated by Vbulk/Vparticle, where Vparticle is the volume of each primary particle, and Vbulk is the volume of compound added to the dissolution medium. The total surface area of all particles added to the dissolution medium is thus calculated through nSAparticle. Finally, the specific surface area (A, m^2/g) defined as the total surface area of a material per unit of mass could be obtained.

[4] = In-vitro aerosol performance evaluation with Next Generation Impactor; details: NGI; for FPF: 90 L/min, particles <5 μm vs recovered dose
Description: The spray dryer is equipped with a Buchi B-296 Dehumidifier and B-295 Inert Loop and a spray nozzle tip diameter of 0.7 mm with nitrogen as the atomization gas. The formulations were prepared according to the processing parameters listed in Table 6, above, with a rate of aspirations fixed at 100% (approximately 35 m^3/h), resulting in an outlet temperature of about 44° C.
A thin layer of silicon grease (Slipicone; DC Products, Waverley, VIC, Australia) coated onto the impactor stages minimizes particle bounce. […] Precise amounts of methanol were used for rinsing DEX and RES in all stages. The solutions were subsequently filtered using a 0.45 μm nylon syringe filters and the solutions assayed by HPLC. The recovered dose, fine particle fraction (FPF), mass median aerodynamic diameter (MMAD), and geometric standard deviation (GSD) were calculated. The FPF is the mass fraction of the particles <5 μm with respect to the recovered dose. The recovered dose was defined as the sum of powder mass assayed on all the parts.

[5] = spray-dried 1:1 from methanol, flow rate 90 L/min

| Structure (SMILES) | Volumetric size D10 [1] | Volumetric size D50 [1] | Span [1] | % of DEX Remaining (n = 3) ([2]; Day 0) | % Difference (Day 0-Day 30) [2] | % of DEX Remaining (n = 3) ([2]; Day 7) | % of DEX Remaining (n = 3) ([2]; Day 30) | Volumetric size D90 [1] | IDR ratio of DEX cocrystals to DEX [3] | release in SNF relative to raw DEX (fold faster) [3] | dissolution relative to raw DEX (fold faster) [3] | FPF ([4]; spray-dried 1:1 from methanol) | FPF ([4]; spray-dried 1:1 from methanol, listed as spray dried cocrystal formulation) | GSD [4, 5] | MMAD [4, 5] | MMAD ([4]; spray-dried 1:1 from methanol, flow rate 90 L/min, listed as spray dried cocrystal formulation) | aerosolized powders deposited on stages 3-6 ([4]; spray-dried, aerodynamic diameters 3.61 to 0.76 μm) |
| --- | --- | --- | --- | --- | --- | --- | --- | --- | --- | --- | --- | --- | --- | --- | --- | --- | --- |
| C[C@@H]1C[C@H]2[C@@H]3CCC4=CC(=O)C=C[C@]4(C)[C@@]3(F)[C@@H](O)C[C@]2(C)[C@@]1(O)C(=O)CO [DEX, 9-fluoro-11β,17,21-trihydroxy-16α-methylpregna-1,4-diene-3,20-dione, reference compound] | 0.93 ± 0.16 μm | 1.52 ± 0.50 μm | 3.15 ± 0.46 | 98.77 ± 2.97% | 4.27 ± 5.14% | 97.23 ± 4.27% | 94.50 ± 3.00% | – | – | – | – | – | – | – | – | – | – |
| CC1CC2C3CCC4=CC(=O)C=CC4(C)C3(F)C(O)CC2(C)C1(O)C(=O)CO.Oc1ccccc1O (centres unmarked) [DEX-CAT] | 8.49 ± 1.76 μm | 24.87 ± 6.75 μm | 5.14 ± 0.28 | 97.83 ± 2.32% | 2.38 ± 5.49% | 96.73 ± 4.72% | 95.45 ± 3.35% | 49.27 ± 6.42 μm | 76.86 | 2.4 fold | 3 fold | – | – | – | – | – | – |
| CC1CC2C3CCC4=CC(=O)C=CC4(C)C3(F)C(O)CC2(C)C1(O)C(=O)CO.Oc1cccc(O)c1 (centres unmarked) [DEX-RES] | 4.46 ± 1.93 μm | 12.0 ± 0.42 μm | 7.69 ± 0.93 | 99.65 ± 2.58% | 4.50 ± 4.07% | 97.18 ± 3.87% | 95.15 ± 3.17% | 35.03 ± 8.92 μm | 48.29 | 2.4 fold | 3 fold | 35.43 % w/w | 35.43±4.97 % w/w | 2.30 μm | 2.96 μm | 2.96±0.49 μm | 30.26% |
